# Data reported in patent US11179474B1, “Nanoparticle-based liver-targeting therapy and imaging” (priority 2015, dated 2021).
# Where no end group is shown, it is not given here.
# B1: GNP-GalC2(50)-AL(50)-(Ac)YFLTTRQ (peptide)
# peptide: YFLTTRQ
# modifications: not fully specified (N-terminus); printed as GNP-GalC2(50)-AL(50)-(Ac)YFLTTRQ; also: linked via amino linker NH2-EG6-SH to gold nanoparticle with galactose-C2 corona
# notes: Gold nanoparticle with a corona of galactose-C2-SH and amino linker in approximately 50:50 ratio; also called Au@GalC2:AL:AL-(Ac)-YFLTTRQ
# B2: GNP-GalC2-HSPEG8COOH-HSPEG8CO… ″low loading″ (peptide)
# peptide: RLNVGGTYFLTTRQ
# modifications: not fully specified (N-terminus); printed as GNP-GalC2-HSPEG8COOH-HSPEG8CONHRLNVGGTYFLTTRQ ″low loading″; also: on gold nanoparticle with galactose-C2 corona
# notes: Same construct as the high loading GNP but with fewer peptides per nanoparticle; also called "low loading" Au@Gal-C2:HSPEG8COOH:HSPEG8CO… GNPs
# B3: GNP-GalC2-HSPEG8COOH-HSPEG8CO… ″high loading″ (peptide)
# peptide: RLNVGGTYFLTTRQ
# modifications: not fully specified (N-terminus); also: on gold nanoparticle with galactose-C2 corona
# notes: Gold nanoparticle with a corona of galactose-C2 and HSPEG8COOH ligands; Approximately 4 peptides per nanoparticle core, so the copy number is approximate; also called "high loading" Au@Gal-C2:HSPEG8COOH:HSPEG8CO… GNPs
# Key:
# [1] = system: HCC cells; test: In vitro targeting of GNPs to HCC cells (counts per field at 20x magnification); type: cell-based; conditions: relative to base GNP lacking the peptide
# From the text: (SEQ ID NO: 1), via its N-terminus (approx. 4 peptide molecules per nanoparticle).
# Several base/peptide targeted GNPs were screened in vitro. GNPs having a mixed corona comprising galactose-C2-SH (Gal-C2) ligands and HSPEG8COOH were synthesised according to methodology analogous to that described above in Examples 1 and 2, with however galactose-C2-SH replacing glucose-C2-SH and HSPEG8COOH (also abbreviated SH-EG6-COOH or SH—(OCH2CH2)6-COOH) replacing the amino linker NH2-EG6-SH.
# The glypican-3 peptide described in U.S. Pat. No. 8,388,937B2 (the contents of which are expressly incorporated herein by reference)—see SEQ ID NO: 1 thereof, which has the amino acid sequence: […] (SEQ ID NO: 1) was linked to the terminal COOH group of a proportion of the HSPEG8COOH ligands via the N-terminus of said peptide. In a “high loading” GNP construct (see row 1 in the table below), approximately 4 peptides were linked per nanoparticle core. The “high loading” Au@Gal-C2:HSPEG8COOH:HSPEG8CONH[…] The “low loading” Au@Gal-C2:HSPEG8COOH:HSPEG8CONH[…]
# [2] = system: HepG2; test: MTT cell viability assay, payload-carrying LacLL nanoparticles vs free drug; type: cell-based, human; conditions: for IC50: HepG2, concentration based on drug amount, FIG. 7: 72 h after treatment
# Method: The human hepatocellular carcinoma cell line HepG2 was used in the assay.
# HepG2 cells were grown in a T-75 flask. For the transfer of the cell the medium was removed from the flask and the cells were trypsinated for 5 minutes. The cells were collected in a Falcon tube and diluted with complete cell medium. The cell counting was conducted in a Neubauer chamber. A cell solution was prepared to seed 4000 cells per well (200 μL per well). The microtiter plate was incubated for 24 h at 37° C.
# For each NP and drug, formulations in cell medium were prepared. The compounds were tested in different concentrations (0.01, 0.05, 0.2, 1, 5, 25 and 125 μM based on drug amount). For the treatment, the cell medium was removed from all wells and exchanged for drug formulations. 200 μl of treatments per triplicate was added to each well. The microtiter plates were incubated for 24 h, 48 h and 72 h at 37° C.
# 1.5 mL MTT solution (8.0 mg in 1.6 mL DMSO) was diluted with complete cell medium (phenol-red free). The treatment cell medium was removed from the microtiter plate, the wells were washed with 100 μL PBS and 100 μL of the MTT reactive solution was added to each well. After one hour incubation at 37° C. the MTT solution was removed and 100 μL DMSO was added to dissolve the formazan dye. Absorbance was measured at 570 nm.
# Data were analysed using OriginPro8. The normalized data were plotted and the curve was fitted using a non-linear regression curve fit (sigmoidal dose-response curve with variable slope). The Absolute IC50 values were obtained by interpolation.
# [3] = molecular target: T1, glypican-3 (on HCC cells) (UniProt P51654 25-554); test: in vitro targeting of GNPs to HCC cells, relative to base nanoparticle lacking the peptide
# T1 construct: whole, on cells; also called GLY-3
# T1 sequence (P51654 25-554 limits assumed, form in doubt): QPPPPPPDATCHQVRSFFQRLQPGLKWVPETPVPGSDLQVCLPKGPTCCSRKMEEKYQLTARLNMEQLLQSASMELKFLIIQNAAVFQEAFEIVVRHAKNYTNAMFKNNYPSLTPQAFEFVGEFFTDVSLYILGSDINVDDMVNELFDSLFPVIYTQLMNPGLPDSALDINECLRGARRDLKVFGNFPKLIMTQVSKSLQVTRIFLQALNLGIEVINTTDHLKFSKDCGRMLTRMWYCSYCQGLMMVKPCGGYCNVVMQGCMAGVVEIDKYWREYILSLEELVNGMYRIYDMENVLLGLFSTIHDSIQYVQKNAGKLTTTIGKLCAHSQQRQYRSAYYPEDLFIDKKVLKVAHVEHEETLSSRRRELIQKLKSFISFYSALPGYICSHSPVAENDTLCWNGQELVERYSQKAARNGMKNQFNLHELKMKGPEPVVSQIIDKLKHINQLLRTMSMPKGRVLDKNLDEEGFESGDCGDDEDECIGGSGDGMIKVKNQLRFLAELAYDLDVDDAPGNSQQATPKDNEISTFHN
# [4] = molecular target: T1, glypican-3 (on HCC cells); test: in vitro targeting of GNPs to HCC cells, relative to base GNP lacking the peptide
# [5] = molecular target: T1, glypican-3 (on HCC cells); test: in vitro targeting of GNPs to HCC cells, counts per field at 20x magnification, relative to base GNP lacking the peptide
molecule,measurement,setting,value
GNP-GalC2(50)-AL(50)-(Ac)YFLTTRQ,Fold-targeting (over base particle),[1]; listed as Au@GalC2:AL:AL-(Ac)-YFLTTRQ,approximately 5 fold
GNP-GalC2-HSPEG8COOH-HSPEG8CONHRLNVGGTYFLTTRQ ″low loading″ (not fully specified (N-terminus); printed as GNP-GalC2-HSPEG8COOH-HSPEG8CONHRLNVGGTYFLTTRQ ″low loading″; also: on gold nanoparticle with galactose-C2 corona),Fold-targeting (over base particle),[1]; listed as “low loading” Au@Gal-C2:HSPEG8COOH:HSPEG8CONHRLNVGGTYFLTTRQ,approximately 4.6 fold
"COc1cccc2c1C(=O)c1c(O)c3c(c(O)c1C2=O)C[C@@](O)(C(=O)CO)C[C@@H]3O[C@H]1C[C@H](N)[C@H](O)[C@H](C)O1 [Doxorubicin, doxorubicin]","cytotoxicity, free drug compared with pay-loaded nanoparticle","[2]; HepG2, MTT",slightly higher cytotoxicity
platinum-(IV)-succinate,IC50,[2],38.6 µM
same,IC50,[2]; listed as Pt(IV)-succinate,38.6 µM
GNP-GalC2-HSPEG8COOH-HSPEG8CONHRLNVGGTYFLTTRQ ″high loading″ (not fully specified (N-terminus); also: on gold nanoparticle with galactose-C2 corona),Fold-targeting (over base particle),[1]; listed as “high loading” Au@Gal-C2:HSPEG8COOH:HSPEG8CONHRLNVGGTYFLTTRQ,approximately 7 fold
B1,Fold-targeting (over base particle),[3],5 fold
B2,Fold-targeting (over base particle),[4],4.6 fold
B3,Fold-targeting (over base particle),[5],7.1 fold
